Data published in US11691970B2, “Pyrazolopyridinone compounds” (Janssen Pharmaceutica NV, priority 2017, dated 2023).
Where a name gives a salt, the structure may show the parent alone. Read-outs that look alike come from different tables or passages of the source.

Columns and labels:
[1] = biological target: T1, human FGFR3 wild type enzyme (cytoplasmic domain) (Homo sapiens, UniProt P22607); assay: FGFR3 wild type mobility shift assay (enzymatic assay); type: biochemical; settings: 75 μM ATP, 50 minutes at 30° C, Caliper EZ reader II
T1 construct: human FGFR3 wild type enzyme (cytoplasmic domain, from Carna Biosciences); purchased Carna Biosciences
Description: FGFR3 Wild Type Mobility Shift Assay (Enzymatic Assay)

[2] = tested on: NIH/3T3 cells transfected with control vector; assay: NIH/3T3 mock cell proliferation assay (counter assay, CellTiter Glo); type: cell-based; settings: Mus musculus, top concentration 30 μM, counter assay for general toxicity, read-out: NIH/3T3 MOCK CTG (IC50)
Procedure: NIH/3T3 Mock Cell Proliferation Assay
In day 1, 90 μL of cell suspension (NIH/3T3 cells transfected with the same control vector as in the above two proliferation assays) (total 30,000 cells per well in growth medium (DMEM containing 1% Glutamax, 10% FBS and 1% Pen/Strep)) was seeded in a 96-well plate and then incubated overnight at 37° C. and 5% CO2. In day 2, 10 μL of growth medium containing 10-fold stock solution of testing compound was added into cell cultures (9 dose points with 3× serial dilution, starting with 30 μM, 0.3% DMSO final). After 72-hr incubation at 37° C. and 5% CO2, in day 5 a volume of 50 μL CellTiter Glo (CTG) reagent was added into cell-containing 96-well plate and the plate was incubated at room temperature for 10 minutes before RLUs (relative light unit) were measured on a microplate reader with luminescence detection module.

[3] = biological target: T2, NIH/3T3 cells overexpressing FGFR3 WT-TACC3 fusion protein (Homo sapiens, UniProt P22607); assay: NIH/3T3 FGFR3 WT-TACC3 cell proliferation assay (CellTiter Glo); type: cell-based; settings: 72-hr incubation, top concentration 10 μM, read-out: NIH/3T3 FGFR3 WT-TACC3 CTG (IC50)
T2 construct: NIH/3T3 FGFR3 WT-TACC3 CTG (IC50); other: 72-hr incubation, CellTiter Glo, top concentration 10 μM; fused on or other part: Q9Y6A5 (Transforming acidic coiled-coil-containing protein 3)
Procedure: NIH/3T3 FGFR3 WT-TACC3 Cell Proliferation Assay
In day 1, 90 μL of cell suspension (NIH/3T3 cells overexpressing FGFR3 WT-TACC3 fusion protein) (total 30,000 cells per well in growth medium (DMEM containing 1% Glutamax, 10% FBS and 1% Pen/Strep)) was seeded in a 96-well plate and then incubated overnight at 37° C. and 5% CO2. […] After 72-hr incubation at 37° C. and 5% CO2, in day 5 a volume of 50 μL CellTiter Glo (CTG) reagent was added into cell-containing 96-well plate and the plate was incubated at room temperature for 10 minutes before RLUs (relative light unit) were measured on a microplate reader with luminescence detection module.

T1 sequence (P22607 397-806 limits assumed): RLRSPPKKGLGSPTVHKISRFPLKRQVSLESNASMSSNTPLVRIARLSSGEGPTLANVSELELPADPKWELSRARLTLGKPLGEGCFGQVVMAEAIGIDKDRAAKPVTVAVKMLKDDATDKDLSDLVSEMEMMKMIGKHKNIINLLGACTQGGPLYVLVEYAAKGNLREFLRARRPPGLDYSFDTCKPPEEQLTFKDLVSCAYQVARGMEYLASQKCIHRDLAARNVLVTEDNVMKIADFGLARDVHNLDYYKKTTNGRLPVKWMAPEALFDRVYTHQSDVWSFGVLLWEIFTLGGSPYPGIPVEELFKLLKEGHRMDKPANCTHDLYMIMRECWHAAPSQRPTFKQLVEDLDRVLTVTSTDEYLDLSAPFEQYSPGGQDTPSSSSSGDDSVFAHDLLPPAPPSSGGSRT
T2 sequence (P22607 whole entry, change not shown, the tested form may be a part): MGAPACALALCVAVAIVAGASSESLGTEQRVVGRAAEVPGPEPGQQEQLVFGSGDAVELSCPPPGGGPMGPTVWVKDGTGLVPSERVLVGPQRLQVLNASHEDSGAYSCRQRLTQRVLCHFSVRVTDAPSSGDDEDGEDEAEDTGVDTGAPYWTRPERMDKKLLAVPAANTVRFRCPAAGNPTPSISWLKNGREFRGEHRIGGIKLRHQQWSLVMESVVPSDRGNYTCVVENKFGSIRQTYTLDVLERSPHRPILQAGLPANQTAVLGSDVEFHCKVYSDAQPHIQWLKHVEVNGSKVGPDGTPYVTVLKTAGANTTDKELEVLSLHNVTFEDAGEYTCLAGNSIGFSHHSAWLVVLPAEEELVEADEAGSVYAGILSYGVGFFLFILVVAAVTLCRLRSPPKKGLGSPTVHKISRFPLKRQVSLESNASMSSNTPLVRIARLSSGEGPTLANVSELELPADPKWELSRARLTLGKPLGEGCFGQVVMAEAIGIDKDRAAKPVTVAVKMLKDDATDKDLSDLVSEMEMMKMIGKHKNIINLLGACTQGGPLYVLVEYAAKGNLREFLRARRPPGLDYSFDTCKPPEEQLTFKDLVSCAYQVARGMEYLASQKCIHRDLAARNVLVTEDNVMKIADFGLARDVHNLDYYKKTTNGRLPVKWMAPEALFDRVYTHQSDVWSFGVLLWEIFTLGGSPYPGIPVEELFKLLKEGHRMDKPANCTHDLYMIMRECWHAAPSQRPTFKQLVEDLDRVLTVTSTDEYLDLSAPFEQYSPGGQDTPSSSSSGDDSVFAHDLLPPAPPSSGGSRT

SMILES	IC50 [1] [nM]	IC50 ([2]; NIH3T3, 72 h, 72-hr incubation) [nM]	GI50 [3] [nM]	IC50 ([2]; NIH3T3, 72-hr incubation) [nM]
COc1cc(N2CCOCC2)cc2[nH]c(-c3c(NC(C)c4ncccn4)c4nn(C)cc4[nH]c3=O)nc12 (single isomer, unassigned) [Compound 51, (S*)-6-(4-methoxy-6-morpholino-1H-benzo[d]imidazol-2-yl)-2-methyl-7-((1-(pyrimidin-2-yl)ethyl)amino)-2,4-dihydro-5H-pyrazolo[4,3-b]pyridin-5-one]	0.788	1160	44.6	
C[C@H](Nc1c(-c2nc3ccc(N4CCO[C@@H](C(F)(F)F)C4)cc3[nH]2)c(=O)[nH]c2cn(C)nc12)c1ncccn1 (relative stereo) [Compound 7, 2-Methyl-7-(((S*)-1-(pyrimidin-2-yl)ethyl)amino)-6-(6-((R*)-2-(trifluoromethyl)-morpholino)-1H-benzo[d]imidazol-2-yl)-2H-pyrazolo[4,3-b]pyridin-5(4H)-one]	0.399	1080	10.5	
CCn1cc2[nH]c(=O)c(-c3nc4ccc(N5CCOCC5)cc4[nH]3)c(N[C@@H](C)c3ncccn3)c2n1 [Compound 46, (S)-2-ethyl-6-(6-morpholino-1H-benzo[d]imidazol-2-yl)-7-((1-(pyrimidin-2-yl)ethyl)-amino)-2H-pyrazolo[4,3-b]pyridin-5(4H)-one]	0.891	1070	13.2	
C[C@H](Nc1c(-c2nc3ccc(C4CCOCC4)c(F)c3[nH]2)c(=O)[nH]c2cn(C)nc12)c1ncccn1 [Compound 13, (S)-6-(7-fluoro-6-(tetrahydro-2H-pyran-4-yl)-1H-benzo[d]imidazol-2-yl)-2-methyl-7-((1-(pyrimidin-2-yl)ethyl)amino)-2H-pyrazolo[4,3-b]pyridin-5(4H)-one]	1.15	2100	22.1	
CCn1cc2[nH]c(=O)c(-c3nc4ccc(N5CCOCC5)cc4[nH]3)c(NC(C)c3cocn3)c2n1 (single isomer, unassigned) [Compound 4A, (S*)-2-ethyl-6-(6-morpholino-1H-benzo[d]imidazol-2-yl)-7-((1-(oxazol-4-yl)ethyl)amino)-2H-pyrazolo[4,3-b]pyridin-5(4H)-one]	3.77	288	26.1	
COCC(Nc1c(-c2nc3c(F)cc(N4CCOCC4)cc3[nH]2)c(=O)[nH]c2cn(C)nc12)c1ncccn1 (single isomer, unassigned) [Compound 30, (R*)-6-(4-fluoro-6-morpholino-1H-benzo[d]imidazol-2-yl)-7-((2-methoxy-1-(pyrimidin-2-yl)ethyl)amino)-2-methyl-2H-pyrazolo[4,3-b]pyridin-5(4H)-one]	469			
CC[C@H](Nc1c(-c2nc3ccc(N4CCOCC4)cc3[nH]2)c(=O)[nH]c2cn(CC)nc12)c1ncccn1 (single isomer, unassigned) [Compound 3, (S*)-2-ethyl-6-(6-morpholino-1H-benzo[d]imidazol-2-yl)-7-((1-(pyrimidin-2-yl)propyl)-amino)-2H-pyrazolo[4,3-b]pyridin-5(47f)-one]	88.3			
CC(Nc1c(-c2nc3ccc(N4CCCCC4)cc3[nH]2)c(=O)[nH]c2cn(C)nc12)c1ncccn1 (single isomer, unassigned) [Compound 35, (R*)-2-methyl-6-(6-(piperidin-1-yl)-1H-benzo[d]imidazol-2-yl)-7-((1-(pyrimidin-2-yl)-ethyl)amino)-2H-pyrazolo[4,3-b]pyridin-5(4H)-one]	39.2			
CC(Nc1c(-c2nc3cc(C(F)(F)F)c(N4CCOCC4)cc3[nH]2)c(=O)[nH]c2cn(C)nc12)c1ncccn1 (single isomer, unassigned) [Compound 20, (S*)2-Methyl-6-(6-morpholino-5-(trifluoromethyl)-1H-benzo[d]imidazol-2-yl)-7-((1-(pyrimidin-2-yl)ethyl)amino)-2H-pyrazolo[4,3-b]pyridin-5(4H)-one]	1240			
CC(Nc1c(-c2nc3ccc(OC4CCOCC4)cc3[nH]2)c(=O)[nH]c2cn(C)nc12)c1cocn1 (single isomer, unassigned) [Compound 37, (R*)-2-methyl-7-((1-(oxazol-4-yl)ethyl)amino)-6-(6-((tetrahydro-2H-pyran-4-yl)oxy)-1H-benzo[d]imidazol-2-yl)-2H-pyrazolo[4,3-b]pyridin-5(4H)-one]	71.7			
CC(Nc1c(-c2nc3ccc(N4C[C@@H](C)O[C@H](C)C4)cc3[nH]2)c(=O)[nH]c2cn(C)nc12)c1ncccn1 (single isomer, unassigned) [Compound 12, 6-(6-((2R,6R)-2,6-dimethylmorpholino)-1H-benzo[d]imidazol-2-yl)-2-methyl-7-(((S*)-1-(pyrimidin-2-yl)ethyl)amino)-2H-pyrazolo[4,3-b]pyridin-5(4H)-one]				454
CCC(Nc1c(-c2nc3ccc(N4CCOCC4)cc3[nH]2)c(=O)[nH]c2cn(C)nc12)c1ncccn1 (single isomer, unassigned) [Compound 40, (R*)-2-methyl-6-(6-morpholino-1H-benzo[d]imidazol-2-yl)-7-((1-(pyrimidin-2-yl)-propyl)amino)-2H-pyrazolo[4,3-b]pyridin-5(4H)-one]	531			
Cc1cc2nc(-c3c(N[C@@H](C)c4cocn4)c4nn(C)cc4[nH]c3=O)[nH]c2cc1N1CCOCC1 [Compound 55, (S)-2-methyl-6-(5-methyl-6-morpholino-1H-benzo[d]imidazol-2-yl)-7-((1-(oxazol-4-yl)-ethyl)amino)-2H-pyrazolo[4,3-b]pyridin-5(4H)-one]	811			
C[C@H](Nc1c(-c2nc3ccc(N4CCN(C)CC4)cc3[nH]2)c(=O)[nH]c2cn(C)nc12)c1ncccc1C(F)(F)F (single isomer, unassigned) [Compound 31, (S*)-2-methyl-6-(6-(4-methylpiperazin-1-yl)-1H-benzo[d]imidazol-2-yl)-7-((1-(3-(trifluoromethyl)pyridin-2-yl)ethyl)amino)-2H-pyrazolo[4,3-b]pyridin-5(4H)-one 0.3 formate]	120			
COc1cc(N2CCOCC2)cc2[nH]c(-c3c(NC(C)c4ncccn4)c4nn(C)cc4[nH]c3=O)nc12 (single isomer, unassigned) [Compound 50, (R*)-6-(4-methoxy-6-morpholino-1H-benzo[d]imidazol-2-yl)-2-methyl-7-((1-(pyrimidin-2-yl)ethyl)amino)-2,4-dihydro-5H-pyrazolo[4,3-b]pyridin-5-one]	95.7			
CC(Nc1c(-c2nc3ccc(N4CCCCC4)c(F)c3[nH]2)c(=O)[nH]c2cn(C)nc12)c1ncccn1 (single isomer, unassigned) [Compound 16, (R*)-6-(7-fluoro-6-(piperidin-1-yl)-1H-benzo[d]imidazol-2-yl)-2-methyl-7-((1-(pyrimidin-2-yl)ethyl)amino)-2H-pyrazolo[4,3-b]pyridin-5(4H)-one]	38.1			
C[C@H](Nc1c(-c2nc3c(F)cc(N4CCOCC4)c(F)c3[nH]2)c(=O)[nH]c2cn(C)nc12)c1ncccn1 (single isomer, unassigned) [Compound 17, (S*)-6-(4,7-difluoro-6-morpholino-1H-benzo[d]imidazol-2-yl)-2-methyl-7-((1-(pyrimidin-2-yl)ethyl)amino)-2H-pyrazolo[4,3-b]130pyridine-5(4H)-one]	46.5			
C[C@H](Nc1c(-c2nc3cnc(N4CCOCC4)cc3[nH]2)c(=O)[nH]c2cn(C)nc12)c1cocn1 [Compound 56, (S)-2-methyl-6-(6-morpholino-1H-imidazo[4,5-c]pyridin-2-yl)-7-((1-(oxazol-4-yl)ethyl)-amino)-2,4-dihydro-5H-pyrazolo[4,3-b]pyridin-5-one]	156			
CCn1cc2[nH]c(=O)c(-c3nc4ccc(N5CCOCC5)cc4[nH]3)c(NC(C)c3cocn3)c2n1 (single isomer, unassigned) [Compound 4B, (R*)-2-ethyl-6-(6-morpholino-1H-benzo[d]imidazol-2-yl)-7-((1-(oxazol-4-yl)ethyl)-amino)-2H-pyrazolo[4,3-b]pyridin-5(4H)-one]	657			
CC(Nc1c(-c2nc3cc(C(F)(F)F)c(N4CCOCC4)cc3[nH]2)c(=O)[nH]c2cn(C)nc12)c1cocn1 (single isomer, unassigned) [Compound 10, (S*)-2-methyl-6-(6-morpholino-5-(trifluoromethyl)-1H-benzo[d]imidazol-2-yl)-7-((1-(oxazol-4-yl)ethyl)amino)-2H-pyrazolo[4,3-b]pyridin-5(4H)-one]				18400
